Measurements: US9963474B2, “Mitochondria-targeted dicarbonyl sequestering compounds” (MEDICAL RESEARCH COUNCIL, priority 2013, dated 2018)

Columns and labels:
[1] = Competitive rate experiment for methylglyoxal monitored by 1H NMR; details: 0.12 mM, DMSO, 25° C.
[2] = Reaction with reactive aldehydes followed by RP-HPLC; details: RP-HPLC analysis, data not shown
Excerpt: MitoG reacted with methylglyoxal and glyoxal to form products with identical absorption, fluorescence and RP-HPLC properties (FIGS. 3E, F, G & H) to those of independently synthesized and characterized MQE or QE (FIGS. 3B, C & D). […] Thus the reaction of MitoG with these aldehydes is not diagnostically useful, in contrast to that with 1,2-dicarbonyls, which generates stable, dominant products.

Nc1ccc(OCCCCCC[P+](c2ccccc2)(c2ccccc2)c2ccccc2)cc1N [MitoG, (6-(3,4-Diaminophenoxy)hexyl)triphenylphosphonium chloride]
reactivity relative to o-phenylenediamine for methylglyoxal [1]: ~1.8 × | reaction with HNE or acrolein [2]: did react, a number of products were formed some of which were unstable
